The target of experiment [1] is T1, lysyl oxidase (Bos taurus, UniProt P33072).
T1 construct: Lysyl oxidase was purified from bovine aorta as previously described; from tissue; host or cells: bovine aorta
T1 sequence (P33072 170-418): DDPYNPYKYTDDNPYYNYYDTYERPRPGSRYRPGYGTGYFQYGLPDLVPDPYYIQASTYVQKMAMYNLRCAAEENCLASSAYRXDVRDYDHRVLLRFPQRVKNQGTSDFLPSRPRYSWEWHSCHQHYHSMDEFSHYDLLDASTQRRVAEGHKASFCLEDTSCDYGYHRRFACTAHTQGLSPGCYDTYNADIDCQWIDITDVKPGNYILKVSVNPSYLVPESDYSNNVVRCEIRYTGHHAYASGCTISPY
Briefly: Lysyl oxidase peroxidase-coupled fluorescence assay of n-hexylamine oxidation. Format: biochemical, bovine. As to the method: Lysyl oxidase was purified from bovine aorta as previously described. [Williams, M. A. and H. M. Kagan, Anal. Biochem. 113:336 (1985)].
(§1) The purified lysyl oxidase enzyme was also assayed against alkyl monoamines and alkyl diamines using the reported peroxidase-coupled fluorescence method at 55° C. [Trackman et al., Anal. Biochem. 113:336-342 (1981)]. The reaction mixtures contained 40 ug horseradish peroxidase, 0.7 mM homovanillic acid, 1.2M urea, 0.02M potassium phosphate/borate buffer, at pH 8 (or at varying values of pH as indicated) in a total volume of 2 ml. Assay solutions were adjusted to an ionic strength of 0.04 using potassium chloride. Lysyl oxidase was then added to initiate the reaction. Fluorescence was continuously monitored at an excitation wavelength of 315 nm and an emission wavelength of 425 nm. The enzyme-dependent production of hydrogen peroxide was quantified by reference to standard plots relating nanomoles of hydrogen peroxide added to fluorescence units. […] Kinetic constants were derived from initial rate assay data by using the Fortan program of Cleland [Meth. Enzymol. 63:103-138 (1979)] which determines Vmax and Km values from data of Michaelis-Menten experiments using a least squares fitting procedure applied to the Michaelis-Menten equation.
The pH-dependency of the Vmax for the oxidation of a series of diamines and monoamine substrates by lysyl oxidase was first explored.
(§2) Accordingly cis and trans isomers of DACH were used to probe this possibility.

Experiment [2] concerns the target T1, lysyl oxidase. Briefly: Irreversible, time-dependent inactivation of lysyl oxidase (preincubation, then dialysis or dilution into the assay). Format: biochemical, bovine. The settings on record: for rate of inactivation under anaerobic conditions: anaerobic / nitrogen-purged. As for the experimental part: as §2
In addition, the time-dependency for the expression of irreversible inhibition was assessed by initially preincubating lysyl oxidase at 37° in the presence or absence of various concentrations of cis-DACH; and then diluting aliquots of these individual reaction mixtures into peroxidase-coupled assays for n-hexylamine oxidation - thereby reducing the cis-DACH concentrations to non-inhibitory levels within the lysyl oxidase assays. […] The possibility that the inactivation derived from the removal of the metal ion cofactor of the enzyme by the cyclic diamine was then assessed by atomic absorption spectroscopy.

Experiment [3] deals with T1, lysyl oxidase. Briefly: Release of 3H+ from [1,2-3H]DACH by lysyl oxidase. Format: biochemical, bovine. The settings on record: for Ratio ^3 H^+/Oxidant / ^3 H^+ Released: 1 mM [^3 H]DACH; for ^3 H^+ Released: pH 8, 37°C, maximum level. As for the experimental part: ^a/ The indicated amounts of PQQ or functional active sites of lysyl
oxidase were incubated with [^3 H]DACH (1 mM; 0.13 mCi/mmole) in 50 m
sodium borate, pH 8, at 37°C. and aliquots of the incubation
mixture were removed at intervals, distilled in vacuo and the isolated
[^3 H]H2 O was quantified by liquid scintillation spectrometry.
The values shown are the maximum levels accumulated in these assays and
are corrected for minor background
effects in the absence of oxidant.
Toward similar ends [1,2-^3 H]DACH was synthesized and used to determine whether the reaction of this diamine with limiting quantities of free PQQ or of lysyl oxidase would result in the release of ^3 H^+ --a result to be expected if carbon 1 and/or carbon 2 positions of cis-DACH were oxidized in these reaction mixtures. As provided by Table E2, approximately 2 moles of ^3 H^+ were released per mole of each limiting reactant; with a maximum of 2.30 moles of ^3 H^+ released per mole of PQQ and a maximum of 1.88 moles of ^3 H^+ released per mole of functional active site in lysyl oxidase. While the synthetic, tritiated product used in these studies consisted of a mixture of the cis and trans isomers, the concentration of [^3 H]DACH incubated with the lysyl oxidase enzyme was sufficiently low to restrict the reaction primarily to the cis isomer--based upon the previous assessment of the relative potency of these compounds as inhibitors of lysyl oxidase or as perturbants of the spectrum of PQQ.

Experiment [4] concerns the target T1, lysyl oxidase. Briefly: Release of H2O2 on oxidation of cis-DACH by lysyl oxidase. Format: biochemical, bovine. As to conditions: for Ratio H2O2/Oxidant / H2O2 Released: 1 mM cis-DACH; for H2O2 Released: maximal release. As for the experimental part: as §1
In view of the apparent inhibiting effect of anaerobic conditions on the induction by cis-DACH of changes in the spectra of PQQ and lysyl oxidase, the possibility was evaluated that oxidation of the diamine substrate analogue may be involved in the development of irreversible inhibition of lysyl oxidase. […] This argues against significant catalytic turnover with the cyclic diamine. Nevertheless, as illustrated by FIG. 7, the development of irreversible inhibition was strongly dependent upon the presence of oxygen since the rate of inactivation was negligible under anaerobic conditions.
Toward that end, evidence was sought for the release of H2 O2 upon the reaction of cis-DACH with limiting amounts of PQQ or of relatively large quantities (although limiting relative to cis-DACH) of pure lysyl oxidase. As given by Table E1, hydrogen peroxide formation was seen under these conditions with the maximum levels of H2 O2 formed essentially equal to the amount of the limiting reactant in both cases, i.e., free PQQ or lysyl oxidase, respectively.
^a/ Hydrogen peroxide as assayed in the peroxidasecoupled fluorescenc
assay using 1 mM cisDACH as the sole source of amine substrate and
containing lysyl oxidase or PQQ at the indicated amounts. Incubations wer
continued until the release of H2 O2 was maximal in each case.
The quantity of lysyl oxidase used is expressed in the Table in terms of
functional active site content. The concentration of PQQ was determined
using 19,122 as the molar extinction coefficent.

In experiment [5] the target is T1, lysyl oxidase. Briefly: Protein-bound copper of lysyl oxidase by atomic absorption spectroscopy. The settings on record: 1 mM, then dialyzed against metal-free buffer. The arrangement: species or system bovine. As to the method: In addition, the time-dependency for the expression of irreversible inhibition was assessed by initially preincubating lysyl oxidase at 37° in the presence or absence of various concentrations of cis-DACH; and then diluting aliquots of these individual reaction mixtures into peroxidase-coupled assays for n-hexylamine oxidation - thereby reducing the cis-DACH concentrations to non-inhibitory levels within the lysyl oxidase assays. […] This is illustrated by FIG. 4. […] The possibility that the inactivation derived from the removal of the metal ion cofactor of the enzyme by the cyclic diamine was then assessed by atomic absorption spectroscopy. This method of analysis yielded the same values for protein-bound copper in aliquots of purified lysyl oxidase which had been incubated in either the presence or absence of 1 mM cis-DACH and then dialyzed extensively against metal-free buffer.

For experiment [6], the target named is T1, lysyl oxidase. Briefly: Perturbation of the absorption spectrum of lysyl oxidase. The arrangement: species or system bovine. As for the experimental part:
Absorption spectra were recorded in 1 cm cuvettes with a Hewlett Packard Diode Array spectrophotometer, with temperatures controlled by circulating water through the cuvette holder. Mixtures were made anaerobic by purging buffers and stock solutions in rubber-capped tubes with high purity nitrogen for 15 min, and then injecting aliquots of the solutions into a 1 cm semi-micro cuvette fitted with a rubber septum and flushed with nitrogen before addition of reagents. Once in the capped cuvette, each solution was further exposed to a stream of nitrogen passed over the surface of the solution and out of the capped cuvette through 21 guage needles for 5 min. just prior to spectral recording. Each perturbation described was reproducible in three or more trials.
Increased absorption occurs in accordance with an increase in optical density occurring in the region of 250 nm; a broad peak also develops with a maximum absorbance at 350-355 nm upon incubation of 47 uM cis-DACH with 4.25 uM of functional active sites in lysyl oxidase as shown in FIG. 6B. The absorption peak at 350-355 nm correlates quite well with a peak generated at the same position in the spectrum of PQQ by its interaction with cis-DACH.

The mark [7] stands for this setting: n-hexylamine substrate, competitive, read-out: KI, competitive inhibition of lysyl oxidase activity against n-hexylamine.
Setting [8] is: lysyl oxidase as oxidant, mean of 3 amounts.

pIC50, pKi: −log10 of the molar value. Like-named read-outs stand apart in the source and are kept apart here. Bounds are passed on as bounds.

In the case of `N[C@@H]1CCCC[C@H]1N` (relative stereo) [trans-DACH, 1,2-Diaminocyclohexane, reference compound], in experiment [1] (n-hexylamine oxidation, extrapolated, read-out: (extrapolated) I50 in assays of n-hexylamine oxidation), the pIC50 is below 2.00. Also, the “fold less inhibitory than cis-DACH” value in experiment [1] (n-hexylamine oxidation, relative to cis-DACH) is on record as “at least 10,000 fold”.

`NCCN` [EDA, Ethylenediamine]: in experiment [1] (setting [7]), the pKi (as a rule, −log10 of the Ki, conventionally taken in molar units) was 5.70. In addition, in experiment [2], the “rate of inactivation under anaerobic conditions” value is “markedly reduced”.

Consider `[3H]C1(N)CCCCC1([3H])N` (centres unmarked) [[1,2-^3 H]DACH, [1,2-^3 H]-1,2-diaminocyclohexane], for which the “Ratio ^3 H^+/Oxidant” value in experiment [3] (0.50 nanomoles lysyl oxidase active sites) was determined as 1.96; in experiment [3] (1.24 nanomoles lysyl oxidase active sites), 1.80; in experiment [3] (3.72 nanomoles lysyl oxidase active sites) it was 1.87. In addition, the results for the “^3 H^+ Released” value in experiment [3] (0.50 nanomoles lysyl oxidase functional active sites), in experiment [3] (1.24 nanomoles lysyl oxidase functional active sites) and in experiment [3] (3.72 nanomoles lysyl oxidase functional active sites) were 0.98 Nanomoles, 2.23 Nanomoles and 6.95 Nanomoles, respectively. The “^3 H^+ released per mole of functional active site in lysyl oxidase” value in experiment [3] (limiting lysyl oxidase) is 1.88 moles of ^3 H^+ released per mole of functional active site. In addition, in experiment [3] (setting [8]), the “Ratio ^3 H^+/Oxidant, mean” value is listed as 1.88 ± 0.07.

Regarding `N[C@@H]1CCCC[C@@H]1N` [cis-DACH, 1,2-Diaminocyclohexane], the “Ratio H2O2/Oxidant” value in experiment [4] (0.71 nanomoles lysyl oxidase active sites) is on record as 1.40; in experiment [4] (1.78 nanomoles lysyl oxidase active sites), 0.96; in experiment [4] (2.20 nanomoles lysyl oxidase active sites), 0.69. In addition, the results for the “H2O2 Released” value in experiment [4] (0.71 nanomoles lysyl oxidase functional active sites), in experiment [4] (1.78 nanomoles lysyl oxidase functional active sites) and in experiment [4] (2.20 nanomoles lysyl oxidase functional active sites) were 1.0 nmol, 1.70 nmol and 1.52 nmol, respectively. Moreover, in experiment [4] (2-4 ug lysyl oxidase, limit of sensitivity ca. 1 nanomole of H2O2), the “formation of H2O2 with catalytic quantities of lysyl oxidase” value is “not detectable”. For the same molecule, the “Ratio H2O2/Oxidant, mean” value in experiment [4] (setting [8]) amounted to 1.02 ± 0.29. Also, in experiment [5], the “removal of copper from the active site” value is recorded as “did not remove copper”. Further, the “perturbation of the lysyl oxidase spectrum” value in experiment [6] (aerobic, 47 uM cis-DACH with 4.25 uM functional active sites) is given as “perturbed”. Besides, the “perturbation of the lysyl oxidase spectrum under anaerobic conditions” value in experiment [6] (anaerobic) is given as “not altered significantly”. The negative-log Ki (pKi) in experiment [1] (as restated in the summary, read-out: KI) was 6.42; in experiment [1] (setting [7]), 6.42. Further, the pIC50 in experiment [1] (n-hexylamine oxidation, read-out: I50 in assays of n-hexylamine oxidation) is 5.82. In experiment [2], the “rate of inactivation under anaerobic conditions” value is listed as “negligible”. In addition, the reversibility of inhibition result in experiment [2] (enzyme preincubated with 0.05M cis-DACH at 37° for 15 min, then dialyzed) was “irreversible”. The kinact – broadly, the rate constant of inactivation at saturating inhibitor – in experiment [2] (preincubation at 37°, secondary reciprocal plot, read-out: limiting apparent first order rate constant for inactivation, Kinact (converted)) was 0.3 s⁻¹.

The values above are taken from US4997854A, “Anti-fibrotic agents and methods for inhibiting the activity of lysyl oxidase in-situ using adjacently positioned diamine analogue substrates” (Trustees of Boston University, priority 1989, dated 1991).
